In US12358919B2, “Antibacterial compounds” (Universita' degli Studi di Siena, priority 2019, dated 2025):

Columns and labels:
[1] = test system: Bacillus subtilis ATCC 6633; assay: MIC, broth microdilution (direct antibacterial activity); assay type: cell-based; details: ATCC6633, B. subtilis ATCC 6633, compound alone, 18-24 h, read-out: MIC
Description: (§1) Growth inhibition or killing of bacteria was investigated using conventional methods widely described in the scientific literature. Parameters such as the Minimum Inhibitory Concentration (MIC) were determined as described in Clinical Laboratory Standard Institute (CLSI) document M07 “Methods for Dilution Antimicrobial Susceptibility Tests for Bacteria That Grow Aerobically, 11th Edition” (2018). Synergistic activity of the compounds described in the present specification were determined by measuring the variation of the MIC's compound in the absence and presence of a sub-inhibitory concentration of a suitable antibacterial agent, such as polymyxin E1. Furthermore, the Fractional Inhibitory Concentrations (FICs) were measured using a chequerboard analysis to determine the average FIC index (FICI), whose value is known to characterize the interaction between two compounds and/or drugs (≤0.5, synergistic interaction; >0.5 and <2, no interaction, additive effect; ≥2, antagonistic interaction). Furthermore, the selectivity of the compounds was investigated by measuring their cytotoxic effect on mammalian cell lines (e.g. HeLa cells).
(§2) The MIC values were determined using the broth microdilution method as described in document M07 using Mueller-Hinton broth as culture medium and an initial bacterial inoculum size of 5×10^5 CFU/mL, with a final volume of 100 μL per well in a 96-well microplate. Bacterial strains were Bacillus subtilis ATCC 6633, Enterococcus faecalis ATCC 29212, Streptococcus pyogenes ATCC 12344 and Staphylococcus aureus ATCC 25923. The tested compound concentration ranged from 512 to 0.25 mg/L. Plates were incubated for 18-24 hours at 35±2° C. prior to results analysis.

[2] = test system: Enterococcus faecalis ATCC 29212; assay: as above; assay type: cell-based; details: ATCC29212, E. faecalis ATCC 29212, compound alone, 18-24 h, read-out: MIC
Description: as §1, §2

[3] = test system: Staphylococcus aureus ATCC 25923; assay: as above; assay type: cell-based; details: ATCC25923, S. aureus ATCC 25923, compound alone, 18-24 h, read-out: MIC
Description: as §1, §2

[4] = test system: Streptococcus pyogenes ATCC 12344; assay: as above; assay type: cell-based; details: ATCC12344, S. pyogenes ATCC 12344, compound alone, 18-24 h, read-out: MIC
Description: as §1, §2

[5] = test system: Klebsiella pneumoniae ATCC 13833; assay: microbe, parasite or virus in culture; assay type: cell-based; details: K. pneumoniae ATCC 13833
Method in brief: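 MICs were determined by CLSI M07 broth dilution, for each compound alone and with a fixed sub-inhibitory concentration of polymyxin E1 (colistin). Potentiation fold is the MIC alone divided by the MIC with polymyxin E.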

E. coli CCUG^T = assay: Chequerboard analysis with polymyxin E1 (average FIC index); assay type: cell-based, Escherichia coli; details: compound + polymyxin E1
A. baumannii ATCC 17978 = assay: as above; assay type: cell-based, Acinetobacter baumannii; details: compound + polymyxin E1
[6] = test system: polymyxin E1-resistant Acinetobacter baumannii (strain N50) clinical isolate; assay type: cell-based; details: A. baumannii N50 (colistin-resistant); compound + polymyxin E1
Description: as §1
“Chequerboard” method was used to further investigate the synergistic activity of pyrazolo[4,3-b]pyridin-6-carboxamides when this compounds are combined with polymyxin E1. […]

in vitro = assay type: cell-based; details: human
Description: as §1
The selectivity and potential cytotoxic effect of antibacterial compounds is a key aspect of such drugs. […]

Compound `CCCCn1c(=O)c(C(=O)NC23CC4CC(CC(C4)C2)C3)c(O)c2nn(C)cc21` [Ib, N-(Adamantan-1-yl)-4-(1-butyl)-4,5-dihydro-7-hydroxy-2-methyl-5-oxo-2H-pyrazolo[4,3-b]pyridin-6-carboxamide] has an MIC [1] of 32 µg/mL, an MIC [2] of 64 µg/mL and an MIC [3] of 64 µg/mL. For the same compound, the MIC [4] was 16 µg/mL, the Potentiation fold ([5]; ratio MICcompound/MICcompound+polymyxin E) was ≥64 and the “MIC in presence of colistin” value ([5]; with 0.25xMIC polymyxin E1 (0.12 mg/L)) was 8 µg/mL. The MIC ([5]; Klebsiella pneumoniae, ATCC13833, compound alone, read-out: MIC) was > 512 µg/mL, the “Average FIC index” value (E. coli CCUG^T) was 0.26 and the “Average FIC index” value (A. baumannii ATCC 17978) was 0.29. For the same compound, the “Average FIC index” value [6] was 0.30 and the IC50 at 24 h (in vitro) was > 256 µg/mL.
